Measured values from patent US10131652B2, “Pyrimidinyloxy benzene derivatives as herbicides” (E. I. DU PONT DE NEMOURS AND COMPANY, priority 2014, dated 2018).

Experiments:
Assay type in all cases: in vivo
[1] = tested on: yellow nutsedge (Cyperus esculentus); experiment: Test D pre-/postemergence plant response
Outline: (§1)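 Plants are held in a greenhouse 13 to 15 days after spraying, then injury is rated by eye relative to controls on a 0 to 100 scale. Treatments are preemergence on freshly sown loam/sand pots or postemergence at 1- to 4-leaf stage in peat-based medium; surfactant-containing solvent formulation.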

[2] = tested on: waterhemp (common waterhemp, Amaranthus rudis); experiment: Test D pre-/postemergence plant response
Outline: as §1

[3] = tested on: winter wheat (Triticum aestivum); experiment: Test D pre-/postemergence plant response
Outline: as §1

soybean (Glycine max) = experiment: Test D pre-/postemergence plant response
Outline: as §1

[4] = tested on: galium (catchweed bedstraw, Galium aparine); experiment: Test D pre-/postemergence plant response
Outline: as §1

[5] = tested on: large (Lg) crabgrass (Digitaria sanguinalis); experiment: Test D pre-/postemergence plant response
Outline: as §1

corn (Zea mays) [6] = experiment: Test D pre-/postemergence plant response
Outline: as §1

[7] = tested on: Italian ryegrass (Lolium multiflorum); experiment: Test D pre-/postemergence plant response
Outline: as §1

[8] = tested on: morningglory (Ipomoea coccinea); experiment: Test D pre-/postemergence plant response
Outline: as §1

[9] = tested on: lambsquarters (Chenopodium album); experiment: Test D pre-/postemergence plant response
Outline: as §1

[10] = tested on: ragweed (common ragweed, Ambrosia elatior); experiment: Test D pre-/postemergence plant response
Outline: as §1

[11] = tested on: barnyardgrass (Echinochloa crus-galli); experiment: Test B pre-/postemergence plant response
Outline: (§2)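 Ratings reflect visual injury versus untreated controls, from 0 for no effect to 100 for complete control, assessed roughly 10 days after treatment. Formulation: non-phytotoxic solvent mix with surfactant; pre- and postemergence sprays on plants grown in loam soil and sand.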

[12] = tested on: pigweed (Amaranthus retroflexus); experiment: Test B pre-/postemergence plant response
Outline: as §2

[13] = tested on: wheat (Triticum aestivum); experiment: Test B pre-/postemergence plant response; conditions: 0 to 100 scale, 0 no effect, 100 complete control
Outline: as §2

[14] = tested on: giant foxtail (Setaria faberii); experiment: Test B pre-/postemergence plant response
Outline: as §2

corn (Zea mays) [15] = experiment: Test B pre-/postemergence plant response; conditions: 0 to 100 scale, 0 no effect, 100 complete control
Outline: as §2

[16] = Postemergence, 16 g ai/ha, scale 0 to 100 (0 no effect, 100 complete control)
[17] = Postemergence, 31 g ai/ha, scale 0 to 100 (0 no effect, 100 complete control)
[18] = Postemergence, 62 g ai/ha, scale 0 to 100, 0 no effect, 100 complete control
[19] = Postemergence, 125 g ai/ha, scale 0 to 100, 0 no effect, 100 complete control
[20] = Preemergence, 16 g ai/ha, scale 0 to 100 (0 no effect, 100 complete control)
[21] = Preemergence, 31 g ai/ha, scale 0 to 100 (0 no effect, 100 complete control)
[22] = Preemergence, 62 g ai/ha, scale 0 to 100 (0 no effect, 100 complete control)
[23] = 31 g ai/ha, Postemergence, 0 to 100 scale, 0 no effect, 100 complete control
[24] = 31 g ai/ha, Preemergence, 0 to 100 scale where 0 is no effect and 100 is complete control
[25] = 125 g ai/ha, postemergence, 0 to 100 scale, 0 no effect, 100 complete control
[26] = Preemergence, 125 g ai/ha, 0 to 100 scale where 0 is no effect and 100 is complete control

SMILES: Fc1ccc(Oc2ncc(Cl)cn2)c(-c2cc(C(F)F)on2)c1F [Compound 113]
- Nutsedge, Yellow plant response rating [1, 16]: 5
- Nutsedge, Yellow plant response rating [1, 17]: 5
- Plant response rating, Nutsedge, Yellow [1, 18]: 5
- Plant response rating, Nutsedge, Yellow [1, 19]: 15
- Plant response rating (scale 0 to 100), Nutsedge, Yellow ([1]; Preemergence, 125 g ai/ha): 60
- Plant response rating, Nutsedge, Yellow [1, 20]: 0
- Plant response rating, Nutsedge, Yellow [1, 21]: 10
- Plant response rating, Nutsedge, Yellow [1, 22]: 15
- Waterhemp plant response rating [2, 16]: 85
- Waterhemp plant response rating [2, 17]: 80
- Plant response rating, Waterhemp [2, 18]: 85
- Plant response rating, Waterhemp [2, 19]: 90
- Plant response rating (scale 0 to 100), Waterhemp ([2]; Preemergence, 125 g ai/ha): 100
- Plant response rating, Waterhemp [2, 20]: 100
- Plant response rating, Waterhemp [2, 21]: 100
- Plant response rating, Waterhemp [2, 22]: 100
- Wheat plant response rating [3, 16]: 0
- Wheat plant response rating [3, 17]: 0
- Plant response rating, Wheat [3, 18]: 5
- Plant response rating, Wheat [3, 19]: 5
- Plant response rating (scale 0 to 100), Wheat ([3]; Preemergence, 125 g ai/ha): 20
- Plant response rating, Wheat [3, 20]: 0
- Plant response rating, Wheat [3, 21]: 5
- Plant response rating, Wheat [3, 22]: 10
- Soybean plant response rating (soybean (Glycine max); [16]): 80
- Soybean plant response rating (soybean (Glycine max); [17]): 55
- Plant response rating, Soybean (soybean (Glycine max); [18]): 65
- Plant response rating, Soybean (soybean (Glycine max); [19]): 75
- Plant response rating (scale 0 to 100), Soybean (soybean (Glycine max); Preemergence, 125 g ai/ha): 80
- Plant response rating, Soybean (soybean (Glycine max); [20]): 35
- Plant response rating, Soybean (soybean (Glycine max); [21]): 40
- Plant response rating, Soybean (soybean (Glycine max); [22]): 90
- Galium plant response rating [4, 16]: 80
- Galium plant response rating [4, 17]: 80
- Plant response rating, Galium [4, 18]: 90
- Plant response rating, Galium [4, 19]: 90
- Plant response rating (scale 0 to 100), Galium ([4]; Preemergence, 125 g ai/ha): 90
- Plant response rating, Galium [4, 20]: 90
- Plant response rating, Galium [4, 21]: 90
- Plant response rating, Galium [4, 22]: 98
- Crabgrass, Large plant response rating [5, 16]: 10
- Crabgrass, Large plant response rating [5, 17]: 20
- Plant response rating, Crabgrass, Large [5, 18]: 25
- Plant response rating, Crabgrass, Large [5, 19]: 25
- Plant response rating (scale 0 to 100), Crabgrass, Large ([5]; Preemergence, 125 g ai/ha): 100
- Plant response rating, Crabgrass, Large [5, 20]: 98
- Plant response rating, Crabgrass, Large [5, 21]: 100
- Plant response rating, Crabgrass, Large [5, 22]: 100
- Corn plant response rating (corn (Zea mays) [6]; [16]): 5
- Corn plant response rating (corn (Zea mays) [6]; [17]): 10
- Plant response rating, Corn (corn (Zea mays) [6]; [18]): 20
- Plant response rating, Corn (corn (Zea mays) [6]; [19]): 25
- Plant response rating (scale 0 to 100), Corn (corn (Zea mays) [6]; Preemergence, 125 g ai/ha): 40
- Plant response rating, Corn (corn (Zea mays) [6]; [20]): 0
- Plant response rating, Corn (corn (Zea mays) [6]; [21]): 0
- Plant response rating, Corn (corn (Zea mays) [6]; [22]): 25
- Ryegrass, Italian plant response rating [7, 16]: 5
- Ryegrass, Italian plant response rating [7, 17]: 5
- Plant response rating, Ryegrass, Italian [7, 18]: 5
- Plant response rating, Ryegrass, Italian [7, 19]: 5
- Plant response rating (scale 0 to 100), Ryegrass, Italian ([7]; Preemergence, 125 g ai/ha): 70
- Plant response rating, Ryegrass, Italian [7, 20]: 5
- Plant response rating, Ryegrass, Italian [7, 21]: 10
- Plant response rating, Ryegrass, Italian [7, 22]: 60
- Morningglory plant response rating [8, 16]: 85
- Morningglory plant response rating [8, 17]: 75
- Plant response rating, Morningglory [8, 18]: 85
- Plant response rating, Morningglory [8, 19]: 80
- Plant response rating (scale 0 to 100), Morningglory ([8]; Preemergence, 125 g ai/ha): 95
- Plant response rating, Morningglory [8, 20]: 20
- Plant response rating, Morningglory [8, 21]: 35
- Plant response rating, Morningglory [8, 22]: 85
- Lambsquarters plant response rating [9, 16]: 70
- Lambsquarters plant response rating [9, 17]: 85
- Plant response rating, Lambsquarters [9, 18]: 95
- Plant response rating, Lambsquarters [9, 19]: 90
- Plant response rating (scale 0 to 100), Lambsquarters ([9]; Preemergence, 125 g ai/ha): 98
- Plant response rating, Lambsquarters [9, 20]: 85
- Plant response rating, Lambsquarters [9, 21]: 98
- Plant response rating, Lambsquarters [9, 22]: 98
- Ragweed plant response rating [10, 16]: 80
- Ragweed plant response rating [10, 17]: 60
- Plant response rating, Ragweed [10, 18]: 90
- Plant response rating, Ragweed [10, 19]: 90
- Plant response rating (scale 0 to 100), Ragweed ([10]; Preemergence, 125 g ai/ha): 90
- Plant response rating, Ragweed [10, 20]: 40
- Plant response rating, Ragweed [10, 21]: 55
- Plant response rating, Ragweed [10, 22]: 85
- Plant response rating, Barnyardgrass [11, 23]: 60
- Plant response rating, Barnyardgrass [11, 24]: 70
- Plant response rating, Barnyardgrass [11, 25]: 90
- Plant response rating, Barnyardgrass [11, 26]: 100
- Plant response rating, Pigweed [12, 23]: 100
- Plant response rating, Pigweed [12, 24]: 100
- Plant response rating, Pigweed [12, 25]: 100
- Plant response rating, Wheat ([13]; 31 g ai/ha, Postemergence): 0
- Plant response rating, Wheat ([13]; 125 g ai/ha, postemergence): 10
- Plant response rating, Foxtail, Giant [14, 23]: 60
- Plant response rating, Foxtail, Giant [14, 24]: 90
- Plant response rating, Foxtail, Giant [14, 25]: 90
- Plant response rating, Foxtail, Giant [14, 26]: 100
- Plant response rating, Corn (corn (Zea mays) [15]; 31 g ai/ha, Postemergence): 10
- Plant response rating, Corn (corn (Zea mays) [15]; 125 g ai/ha, postemergence): 30

SMILES: FC(Cl)c1cc(-c2ccccc2Oc2ncc(Cl)cn2)no1 (stereo not drawn) [Compound 116]
- Nutsedge, Yellow plant response rating [1, 16]: 5
- Nutsedge, Yellow plant response rating [1, 17]: 5
- Plant response rating, Nutsedge, Yellow [1, 18]: 10
- Plant response rating, Nutsedge, Yellow [1, 19]: 25
- Waterhemp plant response rating [2, 16]: 70
- Waterhemp plant response rating [2, 17]: 90
- Plant response rating, Waterhemp [2, 18]: 90
- Plant response rating, Waterhemp [2, 19]: 100
- Wheat plant response rating [3, 16]: 70
- Wheat plant response rating [3, 17]: 0
- Plant response rating, Wheat [3, 18]: 5
- Plant response rating, Wheat [3, 19]: 5
- Soybean plant response rating (soybean (Glycine max); [16]): 40
- Soybean plant response rating (soybean (Glycine max); [17]): 55
- Plant response rating, Soybean (soybean (Glycine max); [18]): 30
- Plant response rating, Soybean (soybean (Glycine max); [19]): 95
- Galium plant response rating [4, 16]: 60
- Galium plant response rating [4, 17]: 60
- Plant response rating, Galium [4, 18]: 70
- Plant response rating, Galium [4, 19]: 90
- Crabgrass, Large plant response rating [5, 16]: 5
- Crabgrass, Large plant response rating [5, 17]: 5
- Plant response rating, Crabgrass, Large [5, 18]: 25
- Plant response rating, Crabgrass, Large [5, 19]: 40
- Corn plant response rating (corn (Zea mays) [6]; [16]): 5
- Corn plant response rating (corn (Zea mays) [6]; [17]): 10
- Plant response rating, Corn (corn (Zea mays) [6]; [18]): 5
- Plant response rating, Corn (corn (Zea mays) [6]; [19]): 10
- Ryegrass, Italian plant response rating [7, 16]: 0
- Ryegrass, Italian plant response rating [7, 17]: 0
- Plant response rating, Ryegrass, Italian [7, 18]: 5
- Plant response rating, Ryegrass, Italian [7, 19]: 10
- Morningglory plant response rating [8, 16]: 15
- Morningglory plant response rating [8, 17]: 10
- Plant response rating, Morningglory [8, 18]: 10
- Plant response rating, Morningglory [8, 19]: 30
- Lambsquarters plant response rating [9, 16]: 40
- Lambsquarters plant response rating [9, 17]: 60
- Plant response rating, Lambsquarters [9, 18]: 80
- Plant response rating, Lambsquarters [9, 19]: 100
- Ragweed plant response rating [10, 16]: 40
- Ragweed plant response rating [10, 17]: 35
- Plant response rating, Ragweed [10, 18]: 60
- Plant response rating, Ragweed [10, 19]: 75
- Plant response rating, Barnyardgrass [11, 23]: 10
- Plant response rating, Barnyardgrass [11, 24]: 0
- Plant response rating, Barnyardgrass [11, 25]: 30
- Plant response rating, Barnyardgrass [11, 26]: 30
- Plant response rating, Pigweed [12, 23]: 100
- Plant response rating, Pigweed [12, 24]: 70
- Plant response rating, Pigweed [12, 25]: 100
- Plant response rating, Wheat ([13]; 31 g ai/ha, Postemergence): 10
- Plant response rating, Wheat ([13]; 125 g ai/ha, postemergence): 20
- Plant response rating, Foxtail, Giant [14, 23]: 20
- Plant response rating, Foxtail, Giant [14, 24]: 40
- Plant response rating, Foxtail, Giant [14, 25]: 90
- Plant response rating, Foxtail, Giant [14, 26]: 90
- Plant response rating, Corn (corn (Zea mays) [15]; 31 g ai/ha, Postemergence): 20
- Plant response rating, Corn (corn (Zea mays) [15]; 125 g ai/ha, postemergence): 40
